≈ marks a conversion by molar mass, not a printed value.
Legend:
Format in all cases: functional
[1] = test system: Staphylococcus aureus; test: Antibacterial activity against Staphylococcus aureus by two-fold dilution method; settings: for MIC: Staphylococcus aureus
[2] = test system: Cutibacterium acnes; test: Antibacterial activity against Propionibacterium acnes by two-fold dilution method
[3] = test system: Pseudomonas aeruginosa; test: Antibacterial activity against Pseudomonas aeruginosa by two-fold dilution method
[4] = test system: Escherichia coli; test: Antibacterial activity against Escherichia coli by two-fold dilution method
[5] = test system: Candida albicans; test: […] activity against Candida albicans by two-fold dilution method; settings: for MIC: Candida albicans

## COC(=O)CCC[C@@H]1[C@H]2CCCN3CCC[C@@H](CN1C(=O)c1cc4ccc(Cl)cc4n1Cc1c(Cl)cccc1Cl)[C@@H]23
[1]
  -logMIC: 0.785
  MIC: 0.164 µg/mL (≈ 0.266 µM)
[2]
  MIC: 0.203 µg/mL (≈ 0.329 µM)
[3]
  MIC: 0.207 µg/mL (≈ 0.335 µM)
[4]
  MIC: 0.82 µg/mL (≈ 1.33 µM)
[5]
  -logMIC: -0.833
  MIC: 6.81 µg/mL (≈ 11 µM)

## COC(=O)CCC[C@@H]1[C@H]2CCCN3CCC[C@@H](CN1C(=O)c1cc4ccc(Cl)cc4n1Cc1ccc(Cl)cc1)[C@@H]23
[1]
  -logMIC: 0.73
  MIC: 0.186 µg/mL (≈ 0.319 µM)
[2]
  MIC: 0.246 µg/mL (≈ 0.422 µM)
[3]
  MIC: 0.633 µg/mL (≈ 1.09 µM)
[4]
  MIC: 0.812 µg/mL (≈ 1.39 µM)
[5]
  -logMIC: -1.13
  MIC: 13.5 µg/mL (≈ 23.1 µM)

## COC(=O)CCC[C@@H]1[C@H]2CCCN3CCC[C@@H](CN1C(=O)c1cc4ccc(Cl)cc4n1Cc1ccc(C(F)(F)F)cc1)[C@@H]23
[1]
  -logMIC: 1.678
  MIC: 0.021 µg/mL (≈ 0.0341 µM)
[2]
  MIC: 0.03 µg/mL (≈ 0.0487 µM)
[3]
  MIC: 0.092 µg/mL (≈ 0.149 µM)
[4]
  MIC: 0.379 µg/mL (≈ 0.615 µM)
[5]
  -logMIC: -0.448
  MIC: 2.81 µg/mL (≈ 4.55 µM)

## COC(=O)CCC[C@@H]1[C@H]2CCCN3CCC[C@@H](CN1C(=O)c1cc4ccc(Cl)cc4n1Cc1ccc(C)cc1)[C@@H]23
[1]
  -logMIC: 0.221
  MIC: 1.66 µg/mL (≈ 2.96 µM)
[2]
  MIC: 0.508 µg/mL (≈ 0.904 µM)
[3]
  MIC: 0.773 µg/mL (≈ 1.38 µM)
[4]
  MIC: 1.09 µg/mL (≈ 1.93 µM)
[5]
  -logMIC: -0.907
  MIC: 8.08 µg/mL (≈ 14.4 µM)

## COC(=O)CCC[C@@H]1[C@H]2CCCN3CCC[C@@H](CN1C(=O)c1cc4ccc(Cl)cc4n1Cc1cc(Cl)ccc1F)[C@@H]23
[1]
  -logMIC: 1.013
  MIC: 0.097 µg/mL (≈ 0.162 µM)
[2]
  MIC: 0.084 µg/mL (≈ 0.14 µM)
[3]
  MIC: 0.5 µg/mL (≈ 0.833 µM)
[4]
  MIC: 0.848 µg/mL (≈ 1.41 µM)
[5]
  -logMIC: -0.739
  MIC: 5.48 µg/mL (≈ 9.12 µM)

## COC(=O)CCC[C@@H]1[C@H]2CCCN3CCC[C@@H](CN1C(=O)c1cc4ccc(Cl)cc4n1Cc1cccc([N+](=O)[O-])c1)[C@@H]23
[1]
  -logMIC: 1.509
  MIC: 0.031 µg/mL (≈ 0.0523 µM)
[2]
  MIC: 0.248 µg/mL (≈ 0.418 µM)
[3]
  MIC: 0.387 µg/mL (≈ 0.652 µM)
[4]
  MIC: 0.954 µg/mL (≈ 1.61 µM)
[5]
  -logMIC: -1.07
  MIC: 11.7 µg/mL (≈ 19.7 µM)

## COC(=O)CCC[C@@H]1[C@H]2CCCN3CCC[C@@H](CN1C(=O)c1cc4ccc(Cl)cc4n1Cc1ccccc1)[C@@H]23
[1]
  -logMIC: 0.283
  MIC: 0.521 µg/mL (≈ 0.951 µM)
[2]
  MIC: 0.478 µg/mL (≈ 0.872 µM)
[3]
  MIC: 0.844 µg/mL (≈ 1.54 µM)
[4]
  MIC: 1.23 µg/mL (≈ 2.25 µM)
[5]
  -logMIC: -0.951
  MIC: 8.94 µg/mL (≈ 16.3 µM)

## COC(=O)CCC[C@@H]1[C@H]2CCCN3CCC[C@@H](CN1C(=O)c1cc4ccc(Cl)cc4n1Cc1cc(OC)ccc1Br)[C@@H]23
[1]
  -logMIC: 0.111
  MIC: 0.774 µg/mL (≈ 1.18 µM)
[2]
  MIC: 0.175 µg/mL (≈ 0.266 µM)
[3]
  MIC: 0.323 µg/mL (≈ 0.492 µM)
[4]
  MIC: 0.933 µg/mL (≈ 1.42 µM)
[5]
  -logMIC: -0.997
  MIC: 9.92 µg/mL (≈ 15.1 µM)

## COC(=O)CCC[C@@H]1[C@H]2CCCN3CCC[C@@H](CN1C(=O)c1cc4ccc(Cl)cc4n1Cc1ccccc1C(C)(C)C)[C@@H]23
[1]
  -logMIC: 0.75
  MIC: 0.178 µg/mL (≈ 0.295 µM)
[2]
  MIC: 0.354 µg/mL (≈ 0.586 µM)
[3]
  MIC: 0.926 µg/mL (≈ 1.53 µM)
[4]
  MIC: 1.14 µg/mL (≈ 1.88 µM)
[5]
  -logMIC: -0.898
  MIC: 7.9 µg/mL (≈ 13.1 µM)

## COC(=O)CCC[C@@H]1[C@H]2CCCN3CCC[C@@H](CN1C(=O)c1cc4ccc(Cl)cc4n1Cc1ccccc1C#N)[C@@H]23
[1]
  -logMIC: 0.319
  MIC: 0.48 µg/mL (≈ 0.837 µM)
[2]
  MIC: 0.848 µg/mL (≈ 1.48 µM)
[3]
  MIC: 0.693 µg/mL (≈ 1.21 µM)
[4]
  MIC: 0.823 µg/mL (≈ 1.44 µM)
[5]
  -logMIC: -1.05
  MIC: 11.2 µg/mL (≈ 19.6 µM)

## COC(=O)CCC[C@@H]1[C@H]2CCCN3CCC[C@@H](CN1C(=O)c1cc4ccc(Cl)cc4n1Cc1cccc4ccccc14)[C@@H]23
[1]
  -logMIC: 0.519
  MIC: 0.303 µg/mL (≈ 0.507 µM)
[2]
  MIC: 0.14 µg/mL (≈ 0.234 µM)
[3]
  MIC: 0.534 µg/mL (≈ 0.893 µM)
[4]
  MIC: 0.649 µg/mL (≈ 1.08 µM)
[5]
  -logMIC: -1.08
  MIC: 12.1 µg/mL (≈ 20.2 µM)

## COC(=O)CCC[C@@H]1[C@H]2CCCN3CCC[C@@H](CN1C(=O)c1cc4ccc(Cl)cc4n1Cc1cccc(C)c1)[C@@H]23
[1]
  -logMIC: 0.567
  MIC: 0.271 µg/mL (≈ 0.482 µM)
[2]
  MIC: 0.305 µg/mL (≈ 0.543 µM)
[3]
  MIC: 0.536 µg/mL (≈ 0.953 µM)
[4]
  MIC: 1.3 µg/mL (≈ 2.31 µM)
[5]
  -logMIC: -1.06
  MIC: 11.6 µg/mL (≈ 20.6 µM)

## CC(C)(O/N=C(\C(=O)N[C@@H]1C(=O)N2C(C(=O)[O-])=C(C[n+]3ccccc3)CS[C@H]12)c1csc(N)n1)C(=O)O [CEFTAZIDIME]
[3]
  MIC: 0.042 µg/mL (≈ 0.0768 µM)

## C[C@H]1c2cccc(O)c2C(=O)C2=C(O)[C@]3(O)C(=O)C(C(N)=O)=C(O)[C@@H](N(C)C)[C@@H]3[C@@H](O)[C@@H]21.Cl [DOXYCYCLINE HYDROCHLORIDE]
[2]
  MIC: 0.023 µg/mL

## OC(Cn1cncn1)(Cn1cncn1)c1ccc(F)cc1F [FLUCONAZOLE]
[5]
  MIC: 4.85 µg/mL (≈ 15.8 µM)

## NC[C@H]1O[C@H](O[C@H]2[C@H](O)[C@@H](O[C@H]3O[C@H](CO)[C@@H](O)[C@H](N)[C@H]3O)[C@H](N)C[C@@H]2N)[C@H](O)[C@@H](O)[C@@H]1O.O=S(=O)(O)O [KANAMYCIN SULFATE]
[4]
  MIC: 0.052 µg/mL

## CC1(C)S[C@@H]2[C@H](NC(=O)Cc3ccccc3)C(=O)N2[C@H]1C(=O)[O-].[Na+] [PENICILLIN G SODIUM]
[1]
  MIC: 0.037 µg/mL
